Assay results taken from US20250282771A1, “TETRAHYDROISOQUINOLINE HETEROBIFUNCTIONAL BCL-XL DEGRADERS” (Treeline Biosciences, Inc., priority 2022, published 2025).

Target: T1, N-terminal HiBiT tagged BCL-XL (Homo sapiens, UniProt Q07817)
T1 construct: expressed in transfected cells; host or cells: HT-1080 (ATCC CCL-121) cells stably transduced with lentivirus pLV-UBC-N-HiBiT-BCL-XL-PGK-puro
Assay: HiBiT based degradation assay
Assay type: cell-based
Details: HT1080 cells expressing N-terminal HiBiT tagged BCL-XL, BCL-XL level normalized with DMSO control
Text: Human BCL-XL protein coding open reading frame fused with N-terminal HiBiT coding sequence was synthesized from Integrated DNA Technologies (IDT). Next, N-HiBiT-BCL-XL sequence was cloned into pLV-UBC-PGK-Puro, a lentivirus plasmid purchased from Vectorbuilder, to generate pLV-UBC-N-HiBiT-BCL-XL-PGK-puro. Lentiviral particles were generated from Lenti-X™ 293T cells (Clontech) by co-transfection of pLV-UBC-N-HiBiT-BCL-XL-PGK-puro plasmids and lentiviral packaging plasmid mix (Cellecta). HT-1080 [HT1080](ATCC CCL-121) cells were infected with the lentivirus, and HT1080 cells stably integrated with the lentiviral vectors were established by incubation with […] puromycin (Thermofisher).
HT1080 cells expressing N-terminal HiBiT tagged BCL-XL were dispensed into a 384-well plate pre-spotted with compounds at varying concentrations. Three thousand cells were seeded into each well in 40 μL of RPMI 1640 media. […] After incubation, luminescence was read on a PHERAstar FSX Plate Reader (BMG). BCL-XL degradation at each indicated concentration was normalized with the DMSO control. The BCL-XL degradation curves were plotted using a four-parameter logistic model. For compounds displaying hook effects, the curve fitting was performed using the bottom point of the hook curves (i.e., the point of Ymin) as the bottom plateau to calculate EC50.

T1 sequence (Q07817 whole entry): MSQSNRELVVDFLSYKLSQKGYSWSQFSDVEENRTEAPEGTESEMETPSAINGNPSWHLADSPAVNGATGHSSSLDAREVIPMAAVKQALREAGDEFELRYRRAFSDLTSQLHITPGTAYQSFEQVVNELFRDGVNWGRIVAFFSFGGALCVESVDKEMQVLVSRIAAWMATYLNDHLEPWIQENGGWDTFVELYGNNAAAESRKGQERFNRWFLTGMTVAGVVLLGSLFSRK

| Structure (SMILES) | Ymin (24 h) | Ymin (6 h) |
| --- | --- | --- |
| Cc1c(OCC2CC3(CCN(CCN4CCN(c5cc6c(cc5F)C(=O)N(C5CCC(=O)NC5=O)C6=O)CC4)CC3)C2)cccc1-c1ccc(N2CCc3cccc(C(=O)Nc4nc5ccccc5s4)c3C2)nc1C(=O)O (stereo not drawn) [Compound 132, 6-(8-(benzo[d]thiazol-2-ylcarbamoyl)-3,4-dihydroisoquinolin-2(1H)-yl)-3-(3-((7-(2-(4-(2-(2,6-dioxopiperidin-3-yl)-6-fluoro-1,3-dioxoisoindolin-5-yl)piperazin-1-yl)ethyl)-7-azaspiro[3.5]nonan-2-yl)methoxy)-2-methylphenyl)picolinic acid] | B (50% ≤ Ymin < 70%) |  |
| Cc1c(OCCCC[C@@H]2CCCN(CC(=O)N3CCN(c4cc5c(cc4F)C(=O)N(C4CCC(=O)NC4=O)C5=O)CC3)C2)cccc1-c1ccc(N2CCc3cccc(C(=O)Nc4nc5ccccc5s4)c3C2)nc1C(=O)O (stereo partly drawn) [Compound 135a, 6-[8-(1,3-benzothiazol-2-ylcarbamoyl)-3,4-dihydro-1H-isoquinolin-2-yl]-3-[3-[4-[(3R)-1-[2-[4-[2-(2,6-dioxo-3-piperidyl)-6-fluoro-1,3-dioxo-isoindolin-5-yl]piperazin-1-yl]-2-oxo-ethyl]-3-piperidyl]butoxy]-2-methyl-phenyl]pyridine-2-carboxylic acid] | B (50% ≤ Ymin < 70%) |  |
| Cc1c(OCCCC[C@H]2CCCN(CC(=O)N3CCN(c4cc5c(cc4F)C(=O)N(C4CCC(=O)NC4=O)C5=O)CC3)C2)cccc1-c1ccc(N2CCc3cccc(C(=O)Nc4nc5ccccc5s4)c3C2)nc1C(=O)O (stereo partly drawn) [Compound 135b, 6-[8-(1,3-benzothiazol-2-ylcarbamoyl)-3,4-dihydro-1H-isoquinolin-2-yl]-3-[3-[4-[(3S)-1-[2-[4-[2-(2,6-dioxo-3-piperidyl)-6-fluoro-1,3-dioxo-isoindolin-5-yl]piperazin-1-yl]-2-oxo-ethyl]-3-piperidyl]butoxy]-2-methyl-phenyl]pyridine-2-carboxylic acid] | B (50% ≤ Ymin < 70%) |  |
| Cc1c(OCCCCCCCN2CCN(c3cc4c(cc3F)C(=O)N(C3CCC(=O)NC3=O)C4=O)CC2)cccc1-c1ccc(N2CCc3cccc(C(=O)Nc4nc5ccccc5s4)c3C2)nc1C(=O)NO (stereo not drawn) [Compound 137, N-(benzo[d]thiazol-2-yl)-2-(5-(3-((7-(4-(2-(2,6-dioxopiperidin-3-yl)-6-fluoro-1,3-dioxoisoindolin-5-yl)piperazin-1-yl)heptyl)oxy)-2-methylphenyl)-6-(hydroxycarbamoyl)pyridin-2-yl)-1,2,3,4-tetrahydroisoquinoline-8-carboxamide] | B (50% ≤ Ymin < 70%) | C (Ymin ≥ 70%) |
| Cc1cc(OCCCC2CCN(CC(=O)N3CCN(c4cc5c(cc4F)C(=O)N(C4CCC(=O)NC4=O)C5=O)CC3)CC2)ccc1-c1ccc(N2CCc3cccc(C(=O)Nc4nc5ccccc5s4)c3C2)nc1C(=O)O (stereo not drawn) [Compound 138] | B (50% ≤ Ymin < 70%) | C (Ymin ≥ 70%) |
| Cc1c(OCCCCC2CCN(CC(=O)N3CCN(c4cc5c(cc4F)C(=O)N(C4CCC(=O)NC4=O)C5=O)CC3)CC2)cccc1-c1ccc(N2CCc3cccc(C(=O)Nc4nc5ccccc5s4)c3C2)nc1C(=O)O (stereo not drawn) [Compound 141] | B (50% ≤ Ymin < 70%) | B (50% ≤ Ymin < 70%) |
| Cc1c(OCCCC2CCN(CC3CCN(c4cc5c(cc4F)C(=O)N(C4CCC(=O)NC4=O)C5=O)CC3)CC2)cccc1-c1ccc(N2CCc3cccc(C(=O)Nc4nc5ccccc5s4)c3C2)nc1C(=O)O (stereo not drawn) [Compound 143, 6-[8-(1,3-benzothiazol-2-ylcarbamoyl)-3,4-dihydro-1H-isoquinolin-2-yl]-3-[3-[3-[1-[[1-[2-(2,6-dioxo-3-piperidyl)-6-fluoro-1,3-dioxo-isoindolin-5-yl]-4-piperidyl]methyl]-4-piperidyl]propoxy]-2-methyl-phenyl]pyridine-2-carboxylic acid] | B (50% ≤ Ymin < 70%) |  |
| Cc1c(OCCCCC2CCN(CC3CCN(c4cc5c(cc4F)C(=O)N(C4CCC(=O)NC4=O)C5=O)CC3)CC2)cccc1-c1ccc(N2CCc3cccc(C(=O)Nc4nc5ccccc5s4)c3C2)nc1C(=O)O (stereo not drawn) [Compound 144, 6-[8-(1,3-benzothiazol-2-ylcarbamoyl)-3,4-dihydro-1H-isoquinolin-2-yl]-3-[3-[4-[1-[[1-[2-(2,6-dioxo-3-piperidyl)-6-fluoro-1,3-dioxo-isoindolin-5-yl]-4-piperidyl]methyl]-4-piperidyl]butoxy]-2-methyl-phenyl]pyridine-2-carboxylic acid] | A (Ymin < 50%) |  |
| Cc1c(OCCC2CCN(CC3CCN(c4cc5c(cc4F)C(=O)N(C4CCC(=O)NC4=O)C5=O)CC3)CC2)cccc1-c1ccc(N2CCc3cccc(C(=O)Nc4nc5ccccc5s4)c3C2)nc1C(=O)O (stereo not drawn) [Compound 145, 6-[8-(1,3-benzothiazol-2-ylcarbamoyl)-3,4-dihydro-1H-isoquinolin-2-yl]-3-[3-[2-[1-[[1-[2-(2,6-dioxo-3-piperidyl)-6-fluoro-1,3-dioxo-isoindolin-5-yl]-4-piperidyl]methyl]-4-piperidyl]ethoxy]-2-methyl-phenyl]pyridine-2-carboxylic acid] | A (Ymin < 50%) |  |

More lines, now with the values ahead:

| Ymin (24 h) | Ymin (6 h) | Structure (SMILES) |
| --- | --- | --- |
| B (50% ≤ Ymin < 70%) |  | Cc1c(O[C@H]2CC[C@H](CCCC(=O)N3CCN(c4cc5c(cc4F)C(=O)N(C4CCC(=O)NC4=O)C5=O)CC3)CC2)cccc1-c1ccc(N2CCc3cccc(C(=O)Nc4nc5ccccc5s4)c3C2)nc1C(=O)O (stereo partly drawn) [Compound 139a, 6-(8-(benzo[d]thiazol-2-ylcarbamoyl)-3,4-dihydroisoquinolin-2(1H)-yl)-3-(3-(((1s,4r)-4-(4-(4-(2-(2,6-dioxopiperidin-3-yl)-6-fluoro-1,3-dioxoisoindolin-5-yl)piperazin-1-yl)-4-oxobutyl)cyclohexyl)oxy)-2-methylphenyl)picolinic acid] |
| A (Ymin < 50%) | C (Ymin ≥ 70%) | Cc1c(O[C@H]2CC[C@H](CCC(=O)N3CCC(c4cc5c(cc4F)C(=O)N(C4CCC(=O)NC4=O)C5=O)CC3)CC2)cccc1-c1ccc(N2CCc3cccc(C(=O)Nc4nc5ccccc5s4)c3C2)nc1C(=O)O (stereo partly drawn) [Compound 140a, 6-(8-(benzo[d]thiazol-2-ylcarbamoyl)-3,4-dihydroisoquinolin-2(1H)-yl)-3-(3-(((1r,4r)-4-(3-(4-(2-(2,6-dioxopiperidin-3-yl)-6-fluoro-1,3-dioxoisoindolin-5-yl)piperidin-1-yl)-3-oxopropyl)cyclohexyl)oxy)-2-methylphenyl)picolinic acid] |
